Results reported in paper PMC5347165, “Killing of Staphylococcus aureus and Salmonella enteritidis and neutralization of lipopolysaccharide by 17-residue bovine lactoferricins: improved activity of Trp/Ala-containing molecules” (Scientific Reports, 2017).
≈ marks a conversion by molar mass, not a printed value. Like-named read-outs stand apart in the source and are kept apart here. Ends that are not written are not given here.

Key:
mouse erythrocytes = conditions: 256 μg/ml; cited from earlier work
S. aureus ATCC25923 [1] = format: cell-based, Staphylococcus aureus; conditions: ATCC25923, 18 h
Method: (§1) The MIC values of LfcinB17-33 derivatives against bacteria were determined by the microtiter broth dilution method. Briefly, 10 μl of serially diluted aliquots of peptides were added to each well of 96-well microtiter plates, followed by the addition of 90 μl exponential phase bacteria (10^5 CFU/ml) and incubated for 16‒18 h at 37 °C.

E. coli CVCC1515 = format: cell-based, Escherichia coli; conditions: CVCC1515, 18 h
Method: as §1

[2] = tested on: E. coli CICC21530 (serotype O157:H7); format: cell-based, Escherichia coli; conditions: microtiter broth dilution, 10^5 CFU/ml, 16‒18 h at 37 °C; representative of three independent experiments
Method: as §1

[3] = tested on: Bacillus subtilis ATCC6633; format: cell-based; conditions: ATCC6633, 18 h
Method: as §1

S. choleraesuis CVCC503 = format: cell-based; conditions: CVCC503, 18 h
Method: as §1

[4] = tested on: Salmonella typhimurium ATCC14028; format: cell-based; conditions: ATCC14028, 18 h
Method: as §1

S. pullorum CVCC1802 = format: cell-based; conditions: CVCC1802, 18 h
Method: as §1

[5] = tested on: Staphylococcus aureus ATCC43300; format: cell-based; conditions: ATCC43300, 18 h
Method: as §1

[6] = tested on: Streptococcus suis CVCC606; format: cell-based; conditions: 18 h
Method: as §1

Escherichia coli CVCC195 = format: cell-based; conditions: CVCC195, 18 h
Method: as §1

S. pullorum CVCC1789 = format: cell-based; conditions: CVCC1789, 18 h
Method: as §1

[7] = tested on: Pseudomonas aeruginosa CICC10419; format: cell-based; conditions: CICC10419, 18 h
Method: as §1

[8] = tested on: Enterococcus faecium CMCC1.2136; format: cell-based; conditions: CMCC1.2136, 18 h
Method: as §1

S. enteritidis CVCC3377 = format: cell-based, Salmonella enteritidis; conditions: CVCC3377, 18 h
Method: as §1

P. aeruginosa CICC21630 = format: cell-based, Pseudomonas aeruginosa; conditions: CICC21630, 18 h
Method: as §1

S. aureus ATCC25923 [9] = format: in vivo
Method: The thigh infection protocol was performed as previously described. Female BALB/c mice (6 weeks old, 22 ± 2 g) were rendered neutropenic (neutrophils, 100/mm^3) by intraperitoneal injection with 150 and 100 mg cyclophosphamide per kg of body weight for 4 d and 1 d before infection, respectively. Mice were inoculated with 100 μl of S. aureus ATCC25923 cells (1.0 × 10^7 CFU/ml) and given a single dose (0.2 ml) of Lfcin4 or Lfcin5 (10 or 15 mg/kg of body weight) or vancomycin (10 mg/kg of body weight) by tail vein injection at 2 h post-infection. Mice were humanely euthanized by cervical dislocation at 5 and 10 h after treatment. Thighs were removed and homogenized in sterile PBS for a CFU assay for S. aureus ATCC25923.

LPS from E. coli O111:B4 = experiment: LPS-induced endotoxemia model, survival; format: in vivo, mouse (C57BL/6); conditions: 15 mg/kg i.p. at 0.5, 8 and 24 h after LPS 30 mg/kg i.p.; followed 7 d; groups of eight mice
Method: Male C57BL/6 mice (8 weeks old, 22 ± 2 g) were intraperitoneally injected with 30 mg/kg of LPS (0.2 ml) from E. coli O111:B4 cells as previously described. Mice were intraperitoneally injected with Lfcin4 or Lfcin5 (10, 15 or 20 mg/kg of body weight in 0.2 ml) or colistin (15 mg/kg of body weight in 0.2 ml) at 0.5, 8 and 24 h after inoculation with LPS, respectively. Mice injected with LPS or saline only served as positive or mock-treated controls, respectively. Survival was recorded every 12 h and followed for up to 7 d.

CSCC[C@H](NC(=O)[C@H](CCCNC(=N)N)NC(=O)[C@H](Cc1c[nH]c2ccccc12)NC(=O)[C@H](CCC(N)=O)NC(=O)[C@H](Cc1c[nH]c2ccccc12)NC(=O)[C@H](CCCNC(=N)N)NC(=O)[C@H](CCCNC(=N)N)NC(=O)[C@H](CS)NC(=O)[C@H](CCCCN)NC(=O)[C@@H](N)Cc1ccccc1)C(=O)N[C@@H](CCCCN)C(=O)N[C@@H](CCCCN)C(=O)N[C@@H](CC(C)C)C(=O)NCC(=O)N[C@@H](C)C(=O)O [Lfcin1]
hemolysis (mouse erythrocytes): approximately 7.5%

CSCC[C@H](NC(=O)[C@H](CCCNC(=N)N)NC(=O)[C@H](Cc1c[nH]c2ccccc12)NC(=O)[C@H](CCC(N)=O)NC(=O)[C@H](Cc1c[nH]c2ccccc12)NC(=O)[C@H](CCCNC(=N)N)NC(=O)[C@H](CCCNC(=N)N)NC(=O)[C@H](CS)NC(=O)[C@H](CCCCN)NC(=O)[C@@H](N)Cc1ccccc1)C(=O)N[C@@H](CCCCN)C(=O)N[C@@H](CCCCN)C(=O)N[C@@H](CC(C)C)C(=O)NCC(=O)N[C@@H](C)C(=O)N1CCC[C@H]1C(=O)N[C@@H](CO)C(=O)O [Lfcin2]
MIC (S. aureus ATCC25923 [1]): 0.92 µM (≈ 2 µg/mL) | MIC (E. coli CVCC1515): >59 µM | MIC [2]: 59 µM (≈ 129 µg/mL) | MIC [3]: 29 µM (≈ 63.2 µg/mL) | MIC (S. choleraesuis CVCC503): 59 µM (≈ 129 µg/mL) | MIC [4]: 29 µM (≈ 63.2 µg/mL) | MIC (S. pullorum CVCC1802): >59 µM | MIC [5]: >59 µM | MIC [6]: >59 µM | MIC (Escherichia coli CVCC195): 15 µM (≈ 32.7 µg/mL) | MIC (S. pullorum CVCC1789): >59 µM | MIC [7]: >59 µM | MIC [8]: 15 µM (≈ 32.7 µg/mL) | MIC (S. enteritidis CVCC3377): 15 µM (≈ 32.7 µg/mL) | MIC (P. aeruginosa CICC21630): >59 µM

CN[C@H](CC(C)C)C(=O)N[C@H]1C(=O)N[C@@H](CC(N)=O)C(=O)N[C@H]2C(=O)N[C@H]3C(=O)N[C@H](C(=O)N[C@H](C(=O)O)c4cc(O)cc(O)c4-c4cc3ccc4O)[C@H](O)c3ccc(c(Cl)c3)Oc3cc2cc(c3O[C@@H]2O[C@H](CO)[C@@H](O)[C@H](O)[C@H]2O[C@H]2C[C@](C)(N)[C@H](O)[C@H](C)O2)Oc2ccc(cc2Cl)[C@H]1O [vancomycin, reference compound]
decrease of bacterial count in thigh (S. aureus ATCC25923 [9]; 10 mg/kg single i.v. dose (Fig. 6B), time not restated, sentence follows the 5 h result): 0.1 log10 CFU/g | S. aureus cells killed (S. aureus ATCC25923 [9]; 10 h post-treatment, 10 mg/kg single i.v. dose): −1.2%

FKAFRWAWRMKKLAAPS [Lfcin3]
MIC (S. aureus ATCC25923 [1]): 0.95 µM | MIC (E. coli CVCC1515): 31 µM | MIC [2]: 31 µM | MIC [3]: 15 µM | MIC (S. choleraesuis CVCC503): 61 µM | MIC [4]: 61 µM | MIC (S. pullorum CVCC1802): >61 µM | MIC [5]: >61 µM | MIC [6]: 61 µM | MIC (Escherichia coli CVCC195): 31 µM | MIC (S. pullorum CVCC1789): >61 µM | MIC [7]: >61 µM | MIC [8]: 15 µM | MIC (S. enteritidis CVCC3377): 1.9 µM | MIC (P. aeruginosa CICC21630): >61 µM

FKAFRWAWRWKKLAAPS [Lfcin5]
MIC (S. aureus ATCC25923 [1]): 0.93 µM | MIC (E. coli CVCC1515): 60 µM | MIC [2]: 30 µM | MIC [3]: 15 µM | MIC (S. choleraesuis CVCC503): 60 µM | MIC [4]: >30 µM | MIC (S. pullorum CVCC1802): >60 µM | MIC [5]: 30 µM | MIC [6]: 60 µM | MIC (Escherichia coli CVCC195): 30 µM | MIC (S. pullorum CVCC1789): >60 µM | MIC [7]: >60 µM | MIC [8]: 7.4 µM | S. aureus cells killed (S. aureus ATCC25923 [9]; ATCC25923, mouse, in vivo, iv, 15 mg/kg, 10 h): approximately 76.6% | MIC (S. enteritidis CVCC3377): 1.9 µM | MIC (P. aeruginosa CICC21630): >60 µM

FKCWRWQWRWKKLGAPS [Lfcin6]
MIC (S. aureus ATCC25923 [1]): 7.1 µM | MIC (E. coli CVCC1515): 57 µM | MIC [2]: 57 µM | MIC [3]: 57 µM | MIC (S. choleraesuis CVCC503): >57 µM | MIC [4]: >57 µM | MIC (S. pullorum CVCC1802): >57 µM | MIC [5]: >57 µM | MIC [6]: >57 µM | MIC (Escherichia coli CVCC195): 57 µM | MIC (S. pullorum CVCC1789): >57 µM | MIC [7]: >57 µM | MIC [8]: 14 µM | MIC (S. enteritidis CVCC3377): 7.1 µM | MIC (P. aeruginosa CICC21630): >57 µM

colistin [reference compound]
survival rate (LPS from E. coli O111:B4): 75%
